Blank lines part the entries; values can stand above or below the compound they belong to.
Experiments:
[1] = Biodistribution in male ddY mouse blood administered intravenously and measured at 2 mins postinjection by gamma counter analysis; format: ADME, organism-based; conditions: in vivo, iv
[2] = Biodistribution in male ddY mouse liver administered intravenously and measured at 60 mins postinjection by gamma counter analysis; format: ADME, organism-based; conditions: in vivo, iv, 1 h
[3] = Biodistribution in male ddY mouse kidney administered intravenously and measured at 60 mins postinjection by gamma counter analysis; format: ADME, organism-based; conditions: in vivo, iv, 1 h
[4] = Biodistribution in male ddY mouse pancreas administered intravenously and measured at 30 mins postinjection by gamma counter analysis; format: ADME, organism-based; conditions: in vivo, iv, 0.5 h
[5] = Biodistribution in male ddY mouse stomach administered intravenously and measured per organ at 10 mins postinjection by gamma counter analysis; format: ADME, organism-based; conditions: in vivo, iv
[6] = Biodistribution in male ddY mouse heart administered intravenously and measured at 30 mins postinjection by gamma counter analysis; format: ADME, organism-based; conditions: in vivo, iv, 0.5 h
[7] = Biodistribution in male ddY mouse pancreas administered intravenously and measured at 60 mins postinjection by gamma counter analysis; format: ADME, organism-based; conditions: in vivo, iv, 1 h
[8] = Biodistribution in male ddY mouse bone administered intravenously and measured at 60 mins postinjection by gamma counter analysis; format: ADME, organism-based, Bone element; conditions: in vivo, iv, 1 h
[9] = Biodistribution in male ddY mouse pancreas administered intravenously and measured at 10 mins postinjection by gamma counter analysis; format: ADME, organism-based; conditions: in vivo, iv
[10] = Biodistribution in male ddY mouse blood administered intravenously and measured at 30 mins postinjection by gamma counter analysis; format: ADME, organism-based; conditions: in vivo, iv, 0.5 h
[11] = Biodistribution in male ddY mouse kidney administered intravenously and measured at 2 mins postinjection by gamma counter analysis; format: ADME, organism-based; conditions: in vivo, iv
[12] = Biodistribution in male ddY mouse heart administered intravenously and measured at 60 mins postinjection by gamma counter analysis; format: ADME, organism-based; conditions: in vivo, iv, 1 h
[13] = Biodistribution in male ddY mouse kidney administered intravenously and measured at 10 mins postinjection by gamma counter analysis; format: ADME, organism-based; conditions: in vivo, iv
[14] = Biodistribution in male ddY mouse brain administered intravenously and measured at 10 mins postinjection by gamma counter analysis; format: ADME, organism-based; conditions: in vivo, iv
[15] = Biodistribution in male ddY mouse intestine administered intravenously and measured at 10 mins postinjection by gamma counter analysis; format: ADME, organism-based; conditions: in vivo, iv
[16] = Biodistribution in male ddY mouse brain administered intravenously and measured at 2 mins postinjection by gamma counter analysis; format: ADME, organism-based; conditions: in vivo, iv
[17] = Biodistribution in male ddY mouse heart administered intravenously and measured at 2 mins postinjection by gamma counter analysis; format: ADME, organism-based; conditions: in vivo, iv
[18] = Biodistribution in male ddY mouse intestine administered intravenously and measured at 60 mins postinjection by gamma counter analysis; format: ADME, organism-based; conditions: in vivo, iv, 1 h
[19] = Biodistribution in male ddY mouse liver administered intravenously and measured at 10 mins postinjection by gamma counter analysis; format: ADME, organism-based; conditions: in vivo, iv
[20] = Biodistribution in male ddY mouse lung administered intravenously and measured at 2 mins postinjection by gamma counter analysis; format: ADME, organism-based; conditions: in vivo, iv
[21] = Biodistribution in male ddY mouse bone administered intravenously and measured at 10 mins postinjection by gamma counter analysis; format: ADME, organism-based, Bone element; conditions: in vivo, iv
[22] = Biodistribution in male ddY mouse stomach administered intravenously and measured per organ at 30 mins postinjection by gamma counter analysis; format: ADME, organism-based; conditions: in vivo, iv, 0.5 h
[23] = Biodistribution in male ddY mouse liver administered intravenously and measured at 30 mins postinjection by gamma counter analysis; format: ADME, organism-based; conditions: in vivo, iv, 0.5 h
[24] = Biodistribution in male ddY mouse spleen administered intravenously and measured at 2 mins postinjection by gamma counter analysis; format: ADME, organism-based; conditions: in vivo, iv
[25] = Biodistribution in male ddY mouse intestine administered intravenously and measured at 2 mins postinjection by gamma counter analysis; format: ADME, organism-based; conditions: in vivo, iv
[26] = Biodistribution in male ddY mouse stomach administered intravenously and measured per organ at 60 mins postinjection by gamma counter analysis; format: ADME, organism-based; conditions: in vivo, iv, 1 h
[27] = Biodistribution in male ddY mouse spleen administered intravenously and measured at 10 mins postinjection by gamma counter analysis; format: ADME, organism-based; conditions: in vivo, iv
[28] = Biodistribution in male ddY mouse stomach administered intravenously and measured per organ at 2 mins postinjection by gamma counter analysis; format: ADME, organism-based; conditions: in vivo, iv
[29] = Biodistribution in male ddY mouse heart administered intravenously and measured at 10 mins postinjection by gamma counter analysis; format: ADME, organism-based; conditions: in vivo, iv
[30] = Biodistribution in male ddY mouse intestine administered intravenously and measured at 30 mins postinjection by gamma counter analysis; format: ADME, organism-based; conditions: in vivo, iv, 0.5 h
[31] = Biodistribution in male ddY mouse spleen administered intravenously and measured at 30 mins postinjection by gamma counter analysis; format: ADME, organism-based; conditions: in vivo, iv, 0.5 h
[32] = Biodistribution in male ddY mouse spleen administered intravenously and measured at 60 mins postinjection by gamma counter analysis; format: ADME, organism-based; conditions: in vivo, iv, 1 h
[33] = Biodistribution in male ddY mouse kidney administered intravenously and measured at 30 mins postinjection by gamma counter analysis; format: ADME, organism-based; conditions: in vivo, iv, 0.5 h
[34] = Biodistribution in male ddY mouse liver administered intravenously and measured at 2 mins postinjection by gamma counter analysis; format: ADME, organism-based; conditions: in vivo, iv
[35] = Biodistribution in male ddY mouse pancreas administered intravenously and measured at 2 mins postinjection by gamma counter analysis; format: ADME, organism-based; conditions: in vivo, iv
[36] = Biodistribution in male ddY mouse lung administered intravenously and measured at 30 mins postinjection by gamma counter analysis; format: ADME, organism-based; conditions: in vivo, iv, 0.5 h
[37] = Biodistribution in male ddY mouse blood administered intravenously and measured at 10 mins postinjection by gamma counter analysis; format: ADME, organism-based; conditions: in vivo, iv
[38] = Biodistribution in male ddY mouse brain administered intravenously and measured at 60 mins postinjection by gamma counter analysis; format: ADME, organism-based; conditions: in vivo, iv, 1 h
[39] = Biodistribution in male ddY mouse bone administered intravenously and measured at 2 mins postinjection by gamma counter analysis; format: ADME, organism-based, Bone element; conditions: in vivo, iv
[40] = Biodistribution in male ddY mouse lung administered intravenously and measured at 60 mins postinjection by gamma counter analysis; format: ADME, organism-based; conditions: in vivo, iv, 1 h
[41] = Biodistribution in male ddY mouse bone administered intravenously and measured at 30 mins postinjection by gamma counter analysis; format: ADME, organism-based, Bone element; conditions: in vivo, iv, 0.5 h
[42] = Biodistribution in male ddY mouse blood administered intravenously and measured at 60 mins postinjection by gamma counter analysis; format: ADME, organism-based; conditions: in vivo, iv, 1 h
[43] = Biodistribution in male ddY mouse lung administered intravenously and measured at 10 mins postinjection by gamma counter analysis; format: ADME, organism-based; conditions: in vivo, iv
[44] = Biodistribution in male ddY mouse brain administered intravenously and measured at 30 mins postinjection by gamma counter analysis; format: ADME, organism-based; conditions: in vivo, iv, 0.5 h
[45] = target: T1, Orexin/Hypocretin receptor type 1 (Homo sapiens, UniProt O43613); assay: Displacement of […]5IBOM from OX1R (unknown origin) transfected in CHO cells assessed as inhibition constant incubated for 1.5 hrs by automated gamma-counter analysis; format: cell-based
T1 sequence (O43613 whole entry): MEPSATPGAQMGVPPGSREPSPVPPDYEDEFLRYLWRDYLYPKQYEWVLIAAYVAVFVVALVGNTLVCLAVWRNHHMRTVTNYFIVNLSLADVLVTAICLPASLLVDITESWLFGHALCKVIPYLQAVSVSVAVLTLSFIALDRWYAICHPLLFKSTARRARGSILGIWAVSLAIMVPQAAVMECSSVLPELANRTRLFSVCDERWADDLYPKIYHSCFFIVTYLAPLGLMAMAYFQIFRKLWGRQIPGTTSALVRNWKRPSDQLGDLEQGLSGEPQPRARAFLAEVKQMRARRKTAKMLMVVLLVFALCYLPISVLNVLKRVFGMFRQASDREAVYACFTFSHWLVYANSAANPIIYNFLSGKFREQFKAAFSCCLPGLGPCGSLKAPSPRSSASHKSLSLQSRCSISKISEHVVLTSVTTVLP

[46] = Selectivity ratio of Ki for OX2R (unknown origin) transfected in CHO cells to Ki for OX1R (unknown origin) transfected in CHO cells; format: cell-based
Orexin receptor type 2 = target: T2, Orexin receptor type 2 (Homo sapiens, UniProt O43614); assay: Displacement of […]5IBOM from OX2R (unknown origin) transfected in CHO cells assessed as inhibition constant incubated for 1.5 hrs by automated gamma-counter analysis; format: cell-based
T2 sequence (O43614 whole entry): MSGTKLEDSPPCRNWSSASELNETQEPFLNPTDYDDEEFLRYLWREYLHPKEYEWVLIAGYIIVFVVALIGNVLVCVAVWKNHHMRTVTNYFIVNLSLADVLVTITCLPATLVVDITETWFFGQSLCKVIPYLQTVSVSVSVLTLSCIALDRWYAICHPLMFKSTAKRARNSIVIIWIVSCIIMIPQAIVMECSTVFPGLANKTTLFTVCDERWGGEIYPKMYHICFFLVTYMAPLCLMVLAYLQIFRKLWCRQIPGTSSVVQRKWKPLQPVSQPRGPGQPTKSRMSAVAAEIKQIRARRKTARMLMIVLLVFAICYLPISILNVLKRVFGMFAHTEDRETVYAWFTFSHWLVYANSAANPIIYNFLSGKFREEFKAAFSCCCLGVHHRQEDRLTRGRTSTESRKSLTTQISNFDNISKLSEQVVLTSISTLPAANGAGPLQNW

- Drug uptake [1]: 4.79 % ID/g
- Drug uptake [2]: 12.6 % ID/g
- Drug uptake [3]: 0.88 % ID/g
- Drug uptake [4]: 0.56 % ID/g
- Drug uptake [5]: 0.98 %ID
- Drug uptake [6]: 0.67 % ID/g
- Drug uptake [7]: 0.36 % ID/g
- Drug uptake [8]: 1.24 % ID/g
- Drug uptake [9]: 2.88 % ID/g
- Drug uptake [10]: 1.1 % ID/g
- Drug uptake [11]: 7.83 % ID/g
- Drug uptake [12]: 0.42 % ID/g
- Drug uptake [13]: 4.37 % ID/g
- Drug uptake [14]: 1.33 % ID/g
- Drug uptake [15]: 8.38 % ID/g
- Drug uptake [16]: 2.64 % ID/g
- Drug uptake [17]: 6.04 % ID/g
- Drug uptake [18]: 30.5 % ID/g
- Drug uptake [19]: 27.5 % ID/g
- Drug uptake [20]: 6 % ID/g
- Drug uptake [21]: 1.18 % ID/g
- Drug uptake [22]: 1.18 %ID
- Drug uptake [23]: 20.4 % ID/g
- Drug uptake [24]: 2.15 % ID/g
- Drug uptake [25]: 2.93 % ID/g
- Drug uptake [26]: 2.13 %ID
- Drug uptake [27]: 1.77 % ID/g
- Drug uptake [28]: 1.03 %ID
- Drug uptake [29]: 2.48 % ID/g
- Drug uptake [30]: 15.4 % ID/g
- Drug uptake [31]: 0.42 % ID/g
- Drug uptake [32]: 0.21 % ID/g
- Drug uptake [33]: 2.32 % ID/g
- Drug uptake [34]: 11.5 % ID/g
- Drug uptake [35]: 5.3 % ID/g
- Drug uptake [36]: 1.11 % ID/g
- Drug uptake [37]: 3.05 % ID/g
- Drug uptake [38]: 0.09 % ID/g
- Drug uptake [39]: 1.5 % ID/g
- Drug uptake [40]: 0.61 % ID/g
- Drug uptake [41]: 0.76 % ID/g
- Drug uptake [42]: 0.55 % ID/g
- Drug uptake [43]: 3.39 % ID/g
- Drug uptake [44]: 0.29 % ID/g
SMILES: C[C@H]1CN(c2nc3ccc(F)cc3s2)CCCN1C(=O)c1cc([18F])ccc1-n1nccn1

- Ki [45]: 1.14 nM
- Ki (Orexin receptor type 2): 12.8 nM
SMILES: Cc1ccc(-n2nccn2)c(C(=O)N2CCCN(c3nc4cc(F)ccc4s3)C[C@@H]2C)c1
- Ratio Ki [46]: 11.3
